What was measured:
[1] = system: normal HSPCs
[2] = system: CD34+/CD38−/CD123+ cells; assay: Viability of cell populations from MDS patient samples in vitro; format: cell-based, human; conditions: for viability / killing of CD123+ MDS stem cells: MDS patient samples, anisomycin 200 nM and 400 nM, ABT-199 200 nm, omacetaxine 200 nM, azacitidine 2.5 μM
Method: Strategies involving inhibiting protein translation were investigated as a means of improving therapeutic outcomes for MDS through the targeting of pathways deregulated in the CD123+ MDS stem cell compartment. A reagent grade compound, anisomycin was tested. Anisomycin is known to inhibit protein translation and induce “ribotoxic stress”.
(§1) Next, the drug omacetaxine mepesuccinate was tested. Omacetaxine is a protein synthesis inhibitor which is FDA approved.
The drug azacitidine was also tested.
The second major phenotype found to be deregulated in CD123+ cells was oxidative phosphorylation and redox status. Thus, the ability of the BCL-2 inhibitor ABT-199 (venetoclax) to preferentially eliminate MDS stem cells was tested.

[3] = system: LSCs; assay: In vitro viability of LSCs from AML patient samples; format: cell-based, human
[4] = system: AML blasts; assay: OXPHOS (seahorse assay) in leukemia cells from patients pre and 24 hours post treatment; format: in vivo, human; conditions: patients receiving single agent
[5] = system: ETC complex II; assay: Glutathione, sdhA glutathionylation and ETC complex II activity in primary AML specimens in vitro; format: cell-based, human
[6] = system: MDS stem cells; assay: Patient bone marrow derived xenograft model of MDS in NSG-S mice; format: in vivo; conditions: for engraftment models with single agent toxicity for human CD45+ cells: three high-risk MDS patient xenografts
Excerpt: To further evaluate the clinical potential of various agents for targeting of MDS stem cells, an in vivo patient bone marrow derived xenograft model of MDS was developed. The system employed the use of primary MDS specimens transplanted into immune deficient NSG-S mice.
Xenografts established using specimens from three independent high-risk MDS patients were used. Drug treatments included single agent therapy with omacetaxine, venetoclax (ABT), azacitidine, the combination of omacetaxine and venetoclax, or the combination of omacetaxine and azacitidine. To evaluate overall drug activity, the reduction of total human hematopoietic cells was measured using the CD45 (pan-hematopoietic) antigen as a marker. […] Next, drug activity in the stem cell compartment was monitored by gating on the CD34+/CD38−/CD123+ subpopulation.

[7] = system: ROS-low LSCs; assay: In vitro amino acid uptake, amino acid levels and transporter expression in LSCs; format: cell-based, human; conditions: LSCs isolated from three patients
Method: Amino acid levels and cell viability were then measured.

[8] = system: protein synthesis; assay: Protein translation levels (OP-puro) in MDS cells; format: cell-based, human; conditions: MDS patient samples, 4 hours
Method: The upregulation of the translation gene sets indicates a potential for increased protein synthesis in the CD123+ stem cell population. To further investigate changes in translational activity, protein synthesis levels were measured by culturing cells with a fluorescent substrate known as OP-puro, which is incorporated into newly synthesized polypeptide chains and can be quantified as a measure of overall protein synthesis activity.
as §1

[9] = system: primary MDS cells; assay: Mitochondrial respiration of primary MDS cells; format: cell-based, human
Excerpt: An additional component of the efficacy observed with combined ABT-199 and omacetaxine may involve suppression of MCL-1 as increased MCL-1 expression in CD34+/CD123+ MDS cells was observed. Resistance to BCL-2 inhibition can be overcome via treatment with protein synthesis inhibitors, which down-regulate expression of MCL-1.

[10] = system: α-ketoglutarate dehydrogenase; assay: TCA cycle enzyme activity in relapsed LSCs after APO866; format: cell-based, human; conditions: 4 hours
[11] = system: malate dehydrogenase; assay: as above; format: cell-based, human; conditions: 4 hours
[12] = system: relapsed LSCs; assay: APO866 treatment of LSCs from relapsed AML patients (NAD+, viability, colony formation, OXPHOS, glycolysis, metabolic flux); format: cell-based, human
Excerpt: (§2) To determine if nicotinamide metabolism is important in LSC survival, particularly in the context of relapsed disease, LSCs were first isolated from de novo AML and relapsed AML patients and analyzed. […] Nicotinamide is a precursor of NAD+, an essential coenzyme in energy metabolism. To test if relapsed LSCs are dependent on nicotinamide metabolism to maintain energy metabolism, nicotinamide metabolism was disrupted in LSCs using the small molecule APO866, which is an inhibitor of Nampt, the rate-limiting enzyme for conversion of nicotinamide to NAD+.
(§3) To better understand the mechanism by which inhibiting nicotinamide metabolism targets relapsed LSCs, changes in OXPHOS and glycolysis activity in de novo and relapsed LSCs after APO866 treatment was measured. […] No change in glycolysis was observed.
To determine how APO866 reduced OXPHOS, stable isotope metabolic flux of amino acids, the fatty acid palmitate, and glucose into the TCA cycle after APO866 treatment was measured.

[13] = system: relapsed AML patient sample; assay: Engraftment of APO866-treated relapsed AML patient sample into immune deficient mice; format: in vivo; conditions: sample treated for 24 hours before engraftment
[14] = system: de novo LSCs; assay: APO866 treatment of LSCs from de novo AML patients (NAD+, viability, colony formation, OXPHOS); format: cell-based, human
Excerpt: as §2, §3

[15] = system: isocitrate dehydrogenase; assay: TCA cycle enzyme activity in relapsed LSCs after APO866; format: cell-based, human; conditions: 4 hours
[16] = system: MOLM-13 cells; assay: Valinomycin-induced mitophagy in MOLM-13 cells; format: cell-based, human; conditions: control MOLM-13 cells
Method: To test whether FIS1 is responsible for the distinct mitochondrial morphology, shRNA-mediated knockdown studies in both the AML cell line MOLM-13 and primary AML cells were performed to examine the effect of FIS1 loss on mitochondrial dynamics. […] To determine if the increased mitochondrial content in FIS1-depleted AML cells is caused by a deficient state of mitophagy, mitophagy was induced in the FIS1-depleted and control cells using the mitochondrial stress inducer valinomycin. […] Expression of PINK1, a kinase stabilized upon mitophagy activation and involved in the clearance of damaged mitochondria was also measured.

[17] = system: CD34+ cells; assay: Valinomycin treatment of normal CD34+ cells; format: cell-based, human; conditions: control and shFIS1 CD34+ cells
[18] = system: LSCs and non-LSCs from human AML specimens; assay: Valinomycin treatment of freshly sorted LSCs and non-LSCs; format: cell-based
Method: To determine whether primary AML cells with a higher expression of FIS1 have increased mitophagy activity, valinomycin treatment experiments were performed on freshly sorted LSCs and non-LSCs from human AML specimens.

sorbitan sesquioleate [SSO]
normal HSPCs viability or colony forming ability [1]: did not affect

COc1ccc(C[C@H]2NC[C@H](O)[C@H]2OC(C)=O)cc1 [Anisomycin, anisomycin]
viability / killing of CD123+ MDS stem cells [2]: selective killing

CCOC(=O)[C@@]1(CCCCCCOc2ccc(Cl)cc2)CO1 [etomoxir]
sensitization of LSCs ([3]; venetoclax/azacitidine resistant LSCs): potently sensitizes LSCs to venetoclax+azacitidine

Nc1ncn([C@@H]2O[C@H](CO)[C@@H](O)[C@H]2O)c(=O)n1 [azacitidine]
patients without alterations in OXPHOS levels [4]: two of three
ROS levels [5]: can increase ROS levels
engraftment models with single agent toxicity for human CD45+ cells [6]: one
ROS-low LSC and ROS-high AML blast viability ([3]; in vitro, 500 nM venetoclax, 2.5 μM azacitidine, 24 hours): potentiates the effect of venetoclax
viability / killing of CD123+ MDS stem cells [2]: no significant decreases in viability
toxicity between CD123+ vs. CD123− ([2]; seven high-risk MDS patient specimens): no differential toxicity
amino acid transporter expression [7]: Neither venetoclax nor azacitidine could reduce expression

COC(=O)C[C@](O)(CCCC(C)(C)O)C(=O)O[C@@H]1C(OC)=C[C@]23CCCN2CCc2cc4c(cc2[C@H]13)OCO4 [omacetaxine, omacetaxine mepesuccinate]
protein translation levels [8]: effective at decreasing protein translation levels
engraftment models with single agent toxicity in the more primitive cells ([6]; CD34+/CD38−/CD123+ subpopulation): 2 of 3
reduction in CD34+/CD38−/CD123+ cells ([6]; each xenograft): greater than or equal to 50%
reduction in CD34+/CD38−/CD123+ cells ([6]; one xenograft): > 80%
engraftment models with single agent toxicity for human CD45+ cells [6]: two
mitochondrial respiration [9]: impairs mitochondrial respiration
viability / killing of CD123+ MDS stem cells [2]: specifically targeted CD123+ cells

O=C(/C=C/c1cccnc1)NCCCCC1CCN(C(=O)c2ccccc2)CC1 [APO866]
α-ketoglutarate dehydrogenase activity [10]: significantly decreased
normal hematopoietic stem cell frequency or colony forming ability [1]: did not affect
malate dehydrogenase activity [11]: significantly decreased
NAD+ ([12]; LSCs from relapsed AML patient samples): significant decrease in NAD+
viability and colony-forming ability ([12]; LSCs from relapsed AML patients, 24 hours): decreased viability and colony-forming ability
glycolysis ([12]; de novo and relapsed LSCs): No change
OXPHOS and OXPHOS capacity ([12]; relapsed LSCs, 4 hours): significant decrease
citrate, malate, and α-ketoglutarate from amino acids and palmitate ([12]; stable isotope metabolic flux): increased accumulation
glycolysis or glucose contribution to the TCA cycle ([12]; stable isotope metabolic flux): No changes
leukemia engraftment [13]: significant reduction in leukemia engraftment
NAD+ ([14]; LSCs from de novo AML patient samples): significant decrease in NAD+
viability and colony-forming ability ([14]; LSCs from de novo, untreated patients, 24 hours): not LSCs from de novo, untreated patients
OXPHOS and OXPHOS capacity ([14]; de novo LSCs, 4 hours): not de novo LSCs
isocitrate dehydrogenase activity [15]: significantly decreased

CC(C)[C@@H]1NC(=O)[C@H](C)OC(=O)[C@@H](C(C)C)NC(=O)[C@@H](C(C)C)OC(=O)[C@H](C(C)C)NC(=O)[C@H](C)OC(=O)[C@@H](C(C)C)NC(=O)[C@@H](C(C)C)OC(=O)[C@H](C(C)C)NC(=O)[C@H](C)OC(=O)[C@@H](C(C)C)NC(=O)[C@@H](C(C)C)OC1=O [valinomycin]
mitochondrial content [16]: loss of mitochondria
PINK1 expression ([16]; 5 mM valinomycin for 3 hr): increased PINK1 expression
mitochondrial mass [17]: induced mitochondrial accumulation
mitochondrial mass in LSCs ([18]; freshly sorted LSCs): efficient clearance of mitochondria
mitochondrial mass in non-LSCs ([18]; freshly sorted non-LSCs): further accumulation of mitochondrial mass
